This note sets out measurements from US20260199483A1 (Bright Angel Therapeutics Inc., priority 2022, published 2026).

One series relates to CaCi2. Description: Antifungal sensitivity testing (broth microdilution MIC). Format: cell-based. The conditions noted are these: CaCi2, 96-well broth microdilution, compounds in DMSO. On the procedure: Minimum inhibitory concentrations (MICs) were determined in flat bottom, 96-well plate format using a modified broth microdilution protocol as previously described (Singh et al., PLoS Pathog. 5, e1000532 (2009); LaFayette et al., PLoS Pathog. 6, 79-80 (2010)). Compounds were formulated in dimethyl sulfoxide (DMSO, Sigma-Aldrich Co.). Each compound was tested in duplicate in at least two independent experiments.

The target of series [1] is T1, purified recombinant Yck2 (Candida albicans, UniProt A0A1D8PKB4).
T1 construct: Yck2 residues 37-345 were PCR amplified from C. albicans genomic DNA; His6 (N); TEV protease site (N); made in house; host or cells: E. coli BL21(DE3)-Gold
T1 sequence (A0A1D8PKB4 entry or part of it): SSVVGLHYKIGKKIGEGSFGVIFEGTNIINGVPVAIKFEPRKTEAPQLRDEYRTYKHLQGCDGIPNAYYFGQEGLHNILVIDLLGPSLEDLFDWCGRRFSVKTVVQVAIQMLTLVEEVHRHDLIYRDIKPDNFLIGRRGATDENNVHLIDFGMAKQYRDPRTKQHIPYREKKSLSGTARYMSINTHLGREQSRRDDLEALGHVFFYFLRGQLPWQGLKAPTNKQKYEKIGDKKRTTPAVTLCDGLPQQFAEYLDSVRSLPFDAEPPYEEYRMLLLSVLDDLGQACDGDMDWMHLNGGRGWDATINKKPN
Briefly: HotSpot kinase assay. It is filed as biochemical, C. albicans. On the procedure:
IC50s were determined using the in vitro HotSpot kinase assay (purified enzymes, ^33P-ATP, an appropriate substrate and 1 μM ATP). For enzyme inhibition assays, compounds were tested in range of ten concentrations from 10 uM to 0.0005 uM using purified recombinant Yck2. Reaction conditions were 1 uM ATP, one hour incubation with inhibitor, and kinase activity detected using 33-ATP phosphorylation of an appropriately selected peptide substrate.
Yck2 residues 37-345 were PCR amplified from C. albicans genomic DNA and subcloned into the vector pMCSG53, which codes for a N-terminal His6 tag, TEV protease site, followed by the Yck2 protein. E. coli BL21(DE3)-Gold competent cells were transformed with this plasmid and the Yck2 protein was purified using methodology previously described (Stogios et al., ACS Chem. Biol. 13, 1322-1332 (2018)).

Series [2] is described as follows: Mammalian cell toxicity (Cell Titer-Glo). Format: cell-based. The conditions noted are these: human; HepG2 cells, 48 h incubation, Cell Titer-Glo luminescence. On the procedure: HepG2 cells were seeded overnight at 500 cells/well in 384-well plate, then incubated with compounds (10-point concentration titration) for 48 h. Cell Titer-Glo® reagent ([…]) was added to each well and after 10-minute incubation at room temperature the luminescent signal was measured using an Envision plate reader (Perkin Elmer).

SMILES strings stand for the structures. ≈ marks a conversion by molar mass, not a printed value.

Usually MIC50 stands for an inhibitory concentration at the 50% level, which refers to growth in some studies and to a panel of isolates in others. As a reminder, the IC50 is the point on the concentration scale where inhibition reaches its midpoint. In the series on CaCi2, `OC(CNCCOc1cccc2c(-c3ccncc3)c(-c3ccc(F)cc3)nn12)(Cn1cncn1)c1ccc(F)cc1F` (centres unmarked) [Compound I-153, 2-(2,4-difluorophenyl)-1-((2-((2-(4-fluorophenyl)-3-(pyridin-4-yl)pyrazolo[1,5-a]pyridin-7-yl)oxy)ethyl)amino)-3-(1H-1,2,4-triazol-1-yl)propan-2-ol] came in with an MIC50 of 1.56 µM (≈ 0.914 µg/mL). Further, the IC50 in series [1] came out at 48.7 nM. Further, the half-inhibitory concentration (IC50) at 48 h in series [2] was greater than 20 µM.

For the compound `O=C(NC1CCN(CC(O)(Cn2cncn2)c2ccc(F)cc2F)CC1)c1cccc2c(-c3ccncc3)c(-c3ccc(F)cc3)nn12` (centres unmarked) [Compound I-155, N-(1-(2-(2,4-difluorophenyl)-2-hydroxy-3-(1H-1,2,4-triazol-1-yl)propyl)piperidin-4-yl)-2-(4-fluorophenyl)-3-(pyridin-4-yl)pyrazolo[1,5-a]pyridine-7-carboxamide], the MIC50 in the series on CaCi2 came out at 0.781 µM (≈ 0.51 µg/mL). Moreover, in series [2], it took 10.1 µM to reach half-maximal inhibition (IC50 at 48 h).

In the series on CaCi2, `O=C(NCC(O)(Cn1cncn1)c1ccc(F)cc1F)c1ccc2c(-c3ccncc3)c(-c3ccc(F)cc3)nn2c1` (centres unmarked) [Compound I-115, N-(2-(2,4-difluorophenyl)-2-hydroxy-3-(1H-1,2,4-triazol-1-yl)propyl)-2-(4-fluorophenyl)-3-(pyridin-4-yl)pyrazolo[1,5-a]pyridine-6-carboxamide] showed an MIC50 of 1.27 µM (≈ 0.723 µg/mL). For the same compound, the IC50 in series [1] came to 3.67 nM. Also, the half-maximal inhibitory concentration (IC50) at 48 h in series [2] is greater than 20 µM.

With `Cn1cc(-c2ccncc2COC(=O)C2CCN(CC(O)(Cn3cncn3)c3ccc(F)cc3F)CC2)c(-c2ccc(F)cc2)n1` (centres unmarked) [Compound I-239, (4-(3-(4-fluorophenyl)-1-methyl-1H-pyrazol-4-yl)pyridin-3-yl)methyl 1-(2-(2,4-difluorophenyl)-2-hydroxy-3-(1H-1,2,4-triazol-1-yl)propyl)piperidine-4-carboxylate], the MIC50 against CaCi2 came to 0.195 µM (≈ 0.123 µg/mL). In addition, the IC50 in series [1] was 185 nM. Moreover, the IC50 at 48 h in series [2] is greater than 20 µM.

For `CC(C)(C)OC(=O)N1CCc2c(n(CCCN3CCC(n4cnc(-c5ccc(F)cc5)c4-c4ccnc(N)n4)CC3)c3ccc(Cl)cc23)C1` [Compound I-229, tert-butyl 9-(3-(4-(5-(2-aminopyrimidin-4-yl)-4-(4-fluorophenyl)-1H-imidazol-1-yl)piperidin-1-yl)propyl)-6-chloro-1,3,4,9-tetrahydro-2H-pyrido[3,4-b]indole-2-carboxylate], the IC50 in series [1] was 16.4 nM. In series [2], this compound registered an IC50 at 48 h of 5.59 µM.

Take `Cn1cc(-c2ccnc3c2C(=O)N(C2CCN(CC(O)(Cn4cncn4)c4ccc(F)cc4F)CC2)C3)c(-c2ccc(F)cc2)n1` (centres unmarked) [Compound I-242, 6-(1-(2-(2,4-difluorophenyl)-2-hydroxy-3-(1H-1,2,4-triazol-1-yl)propyl)piperidin-4-yl)-4-(3-(4-fluorophenyl)-1-methyl-1H-pyrazol-4-yl)-6,7-dihydro-5H-pyrrolo[3,4-b]pyridin-5-one]: the IC50 in series [1] was 15.3 nM. Besides, the IC50 at 48 h in series [2] was greater than 20 µM.

Regarding `O=C(NC1CCN(C[C@](O)(Cn2cncn2)c2ccc(F)cc2F)CC1)c1ccc2c(-c3ccncc3)c(-c3ccc(F)cc3)nn2c1` [Compound I-102, (S)-N-(1-(2-(2,4-difluorophenyl)-2-hydroxy-3-(1H-1,2,4-triazol-1-yl)propyl)piperidin-4-yl)-2-(4-fluorophenyl)-3-(pyridin-4-yl)pyrazolo[1,5-a]pyridine-6-carboxamide], the MIC50 with CaCi2 stood at 3.12 µM (≈ 2.04 µg/mL). Also, the IC50 in series [1] was found to be 46.6 nM. The same compound came in with an IC50 at 48 h in series [2] of 2.24 µM.

For `Nc1nccc(-c2c(-c3ccc(F)cc3)ncn2C2CCN(CCCNCC(O)(Cn3cncn3)c3ccc(F)cc3F)CC2)n1` (centres unmarked) [Compound I-80, 1-((3-(4-(5-(2-aminopyrimidin-4-yl)-4-(4-fluorophenyl)-1H-imidazol-1-yl)piperidin-1-yl)propyl)amino)-2-(2,4-difluorophenyl)-3-(1H-1,2,4-triazol-1-yl)propan-2-ol], the half-maximal inhibitory concentration (IC50) in series [1] was found to be 3.33 nM. The 50% inhibitory concentration (IC50) at 48 h in series [2] is greater than 20 µM.

Compound `OC(Cn1cncn1)(c1ccc(F)cc1F)C(F)(F)c1ccc(C#Cc2ccc(OCCNCc3ccc4c(-c5ccncc5)c(-c5ccc(F)cc5)nn4c3)cc2)cn1` (centres unmarked) [Compound I-270] gave an MIC50 against CaCi2 of 0.586 µM (≈ 0.476 µg/mL). This compound also yielded an IC50 at 48 h in series [2] of 1.54 µM.

`Nc1nccc(-c2c(-c3ccc(F)cc3)ncn2C2CCN(CCCn3c4c(c5cccc(Cl)c53)CCNC4)CC2)n1` [Compound I-231, 4-(1-(1-(3-(8-chloro-1,2,3,4-tetrahydro-9H-pyrido[3,4-b]indol-9-yl)propyl)piperidin-4-yl)-4-(4-fluorophenyl)-1H-imidazol-5-yl)pyrimidin-2-amine] gave an MIC50 with CaCi2 greater than 25 µM. Also, the concentration for half-maximal inhibition (IC50) in series [1] was 4.13 nM. This compound gave a half-maximal inhibitory concentration (IC50) at 48 h in series [2] of 1.84 µM.

The compound `Fc1ccc(-c2nn3cc(CNC[C@H]4CO[C@@](Cn5cncn5)(c5ccc(F)cc5F)C4)ccc3c2-c2ccncc2)cc1` (stereo in doubt) [Compound I-257, 1-(cis-5-((1H-1,2,4-triazol-1-yl)methyl)-5-(2,4-difluorophenyl)tetrahydrofuran-3-yl)-N-((2-(4-fluorophenyl)-3-(pyridin-4-yl)pyrazolo[1,5-a]pyridin-6-yl)methyl)methanamine] came in with an MIC50 against CaCi2 of 0.295 µM (≈ 0.176 µg/mL). The same compound yielded a 50% inhibitory concentration (IC50) at 48 h in series [2] of 5.57 µM.

Turning to `OC(Cn1cncn1)(c1ccc(F)cc1F)C(F)(F)c1ccc(C#Cc2ccc(NCc3ccc4c(-c5ccncc5)c(-c5ccc(F)cc5)nn4c3)cc2)cn1` (centres unmarked) [Compound I-268], the MIC50 in the series on CaCi2 is 1.17 µM (≈ 0.899 µg/mL). In series [2], this compound returned a half-inhibitory concentration (IC50) at 48 h greater than 50 µM.

With `O=C(NC1CCN(C[C@@](O)(Cn2cncn2)c2ccc(F)cc2F)CC1)c1ccc2c(-c3ccncc3)c(-c3ccc(F)cc3)nn2c1` [Compound I-103, (R)-N-(1-(2-(2,4-difluorophenyl)-2-hydroxy-3-(1H-1,2,4-triazol-1-yl)propyl)piperidin-4-yl)-2-(4-fluorophenyl)-3-(pyridin-4-yl)pyrazolo[1,5-a]pyridine-6-carboxamide], the MIC50 in the series on CaCi2 amounted to 0.0488 µM (≈ 0.0319 µg/mL). In addition, the IC50 in series [1] is 49.5 nM. Moreover, the IC50 at 48 h in series [2] came out at 6.38 µM.

Compound `O=C(CC(O)(Cn1cncn1)c1ccc(F)cc1F)NCc1ccc2c(-c3ccncc3)c(-c3ccc(F)cc3)nn2c1` (centres unmarked) [Compound I-255, 3-(2,4-difluorophenyl)-N-((2-(4-fluorophenyl)-3-(pyridin-4-yl)pyrazolo[1,5-a]pyridin-6-yl)methyl)-3-hydroxy-4-(1H-1,2,4-triazol-1-yl)butanamide] gave an MIC50 against CaCi2 of 1.56 µM (≈ 0.91 µg/mL). Half-maximal inhibition in series [2] (IC50 at 48 h) required 22.5 µM.

On to `Fc1ccc(-c2nn3cc(CNC[C@H]4CO[C@](Cn5cncn5)(c5ccc(F)cc5F)C4)ccc3c2-c2ccncc2)cc1` (stereo in doubt) [Compound I-256, 1-(trans-5-((1H-1,2,4-triazol-1-yl)methyl)-5-(2,4-difluorophenyl)tetrahydrofuran-3-yl)-N-((2-(4-fluorophenyl)-3-(pyridin-4-yl)pyrazolo[1,5-a]pyridin-6-yl)methyl)methanamine], for which, in series [2], the midpoint of inhibition, the IC50 at 48 h, lay at 11.8 µM.

On to `C[C@@H](NCc1ccc2c(-c3ccncc3)c(-c3ccc(F)cc3)nn2c1)[C@](O)(Cn1cncn1)c1ccc(F)cc1F` [Compound I-266, (2R,3R)-2-(2,4-difluorophenyl)-3-(((2-(4-fluorophenyl)-3-(pyridin-4-yl)pyrazolo[1,5-a]pyridin-6-yl)methyl)amino)-1-(1H-1,2,4-triazol-1-yl)butan-2-ol], for which the MIC50 against CaCi2 came out at 0.195 µM (≈ 0.111 µg/mL). The compound further showed a concentration for half-maximal inhibition (IC50) at 48 h in series [2] of 19.5 µM.

As for `Cn1cc(-c2ccnc3c2C(=O)N(CCC2CCN(CC(O)(Cn4ccnn4)c4ccc(F)cc4F)CC2)C3)c(-c2ccc(F)cc2)n1` (centres unmarked) [Compound I-250], the half-maximal inhibitory concentration (IC50) at 48 h in series [2] is greater than 50 µM.
